These results are taken from PubChem BioAssay (NCI).

Experiment in all cases: inhibition of tumour cell growth, NCI panel, 48 h
Assay [1] relates to HL-60(TB) leukemia.
Assay [2] concerns OVCAR-8 ovarian.
The test system of assay [3] is BT-549 breast.
Assay [4] relates to A549 NSCLC.
The test system of assay [5] is HS 578T breast.
In assay [6] the test system is LOX IMVI melanoma.
The subject of assay [7] is MCF7 breast.
Assay [8] deals with SR leukemia.

Molecules are shown by their SMILES.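 A five-concentration, 48-hour dose response in 96-well plates underlies each endpoint, interpolated linearly between surrounding concentrations. At the GI50, growth is halved. TGI: total growth inhibition.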 A value given as a limit tells only on which side of the number the result lay.

Turning to `COC(C)C(O)(C(=O)OCC1=CCN2CCC(O)C12)C(C)(C)O` (configuration not stated), the TGI in assay [1], in assay [2], in assay [3], in assay [4], in assay [5] and in assay [6] was greater than 100 µM in each case. For the same compound, the TGI in assay [7] was greater than 100 µM.

For `COc1ccc(-c2cc(=O)c3c(O)c(OC)c(OC)c(OC)c3o2)cc1`, the TGI in assay [1] is greater than 100 µM; in assay [2], greater than 100 µM; in assay [3], greater than 100 µM; in assay [4], greater than 100 µM; in assay [5] it was greater than 93.7 µM; in assay [6], greater than 100 µM. The TGI in assay [7] is greater than 100 µM.

As to `C=C(C)[C@@H]1CC[C@]2(C(=O)NS(=O)(=O)c3ccccc3)CC[C@]3(C)[C@H](CC[C@@H]4[C@@]5(C)CC[C@H](OC(=O)NS(=O)(=O)c6ccccc6)C(C)(C)[C@@H]5CC[C@]43C)[C@@H]12`, the GI50 is 2.24 µM in assay [1]; 2.89 µM in assay [2]; 1.79 µM in assay [3]; 3.24 µM in assay [4]; 1.49 µM in assay [5]; 1.56 µM in assay [6]. Moreover, in assay [7], the GI50 is 2.93 µM. The TGI in assay [1] is 5.08 µM; in assay [2], 19.1 µM; in assay [3] it was 6.31 µM; in assay [4], 21.8 µM; in assay [5], 10.1 µM; in assay [6], 3.06 µM. In addition, the TGI in assay [7] worked out at 10.8 µM.

Turning to `CCn1c2ccccc2c2cc(C(=O)c3ccc(C)c4ccccc34)ccc21`, the GI50 is 0.307 µM in assay [1]; 0.493 µM in assay [2]; 0.574 µM in assay [3]; 0.421 µM in assay [4]; 0.756 µM in assay [5]; 0.323 µM in assay [6]. The GI50 in assay [7] was 0.311 µM. Also, the TGI is 2 µM in assay [1]; greater than 100 µM in assay [2]; 5.34 µM in assay [3]; greater than 100 µM in assay [4]; greater than 100 µM in assay [5]; 1.62 µM in assay [6]. For the same compound, the TGI in assay [7] is greater than 100 µM.

In the case of `C[N+](C)=c1ccc2nc3c(cc(NCCCNc4cc5oc6cc(=[N+](C)C)ccc-6nc5c5ccccc45)c4ccccc43)oc-2c1`, the GI50 in assay [1] is 2.56 µM; in assay [2] it was 1.9 µM; in assay [3] it was 5.97 µM; in assay [8], 2.58 µM; in assay [5], 7.22 µM; in assay [7], 0.885 µM. Besides, the TGI was 9.25 µM in assay [1]; 5.85 µM in assay [2]; greater than 64.3 µM in assay [3]; greater than 28.5 µM in assay [8]; 45.6 µM in assay [5]; 3.23 µM in assay [7].

Take `O=C1NC(c2ccccc2)C2(C(=O)O)CN(C3CC3)c3cc(N4CCNCC4)c(F)cc3C2N1` (configuration not stated): the GI50 in assay [1], in assay [2], in assay [3], in assay [4], in assay [5] and in assay [6] was greater than 100 µM in each case. Moreover, the GI50 in assay [7] is greater than 100 µM. Further, the TGI in assay [1], in assay [2], in assay [3], in assay [4], in assay [5] and in assay [6] was greater than 100 µM in each case. The compound further displayed a TGI in assay [7] greater than 100 µM.

On to `CCOC(=O)C1=C(C)NC(c2ccco2)=C(C#N)C1c1cccc([N+](=O)[O-])c1` (configuration not stated), for which the GI50 in assay [2] was 0.0149 µM; in assay [3] it was 0.153 µM; in assay [4] it was 0.0293 µM; in assay [8], 0.0416 µM; in assay [6], 0.0587 µM; in assay [7] it was 0.0339 µM. The TGI in assay [2] is 13.9 µM; in assay [3], 18 µM; in assay [8], 17.5 µM; in assay [5] it was 0.0885 µM; in assay [6], 11.9 µM; in assay [7] it was 20.8 µM.

Regarding `N#Cc1cc(S(=O)(=O)Nc2nc3ccccc3o2)c(SCc2ccccc2)cc1Cl`, the GI50 in assay [2] was 5.1 µM; in assay [3], 20.5 µM; in assay [4], 22.5 µM; in assay [8], 76.5 µM; in assay [5], 25.4 µM; in assay [6], 18.7 µM. In addition, the GI50 in assay [7] is 39.8 µM. In addition, the TGI in assay [2] was 63.2 µM; in assay [3] it was 41.3 µM; in assay [4], 55 µM; in assay [8], greater than 100 µM; in assay [5], 62 µM; in assay [6], 36.5 µM. Also, in assay [7], the TGI is greater than 100 µM.

With `O=C1N=C(Nc2nc(-c3csc(NC4=NC(=O)/C(=C\c5ccccc5)S4)n3)cs2)S/C1=C/c1ccccc1`, the GI50 in assay [1] was 14.3 µM; in assay [2], 15.6 µM; in assay [4], 16.3 µM; in assay [5], greater than 50 µM; in assay [6], greater than 50 µM; in assay [7], 3.7 µM. The TGI in assay [1] was 36.8 µM; in assay [2] it was greater than 50 µM; in assay [4], greater than 50 µM; in assay [5], greater than 50 µM; in assay [6], greater than 50 µM; in assay [7], greater than 50 µM.

As for `NC(Cc1ccccc1)c1nccs1` (configuration not stated), the TGI in assay [2], in assay [3], in assay [4], in assay [8], in assay [5] and in assay [6] was greater than 100 µM throughout. For the same compound, the TGI in assay [7] is greater than 100 µM.

On to `COc1ccc2[nH]c(C(=O)OCc3ccc4c(Cl)cc(Cl)c(O)c4n3)cc2c1`, for which the GI50 was 1.5 µM in assay [1]; 1.15 µM in assay [2]; 1.21 µM in assay [3]; 1.67 µM in assay [4]; 0.38 µM in assay [8]; 1.28 µM in assay [5]. Besides, the GI50 in assay [6] was 0.907 µM. Further, the TGI in assay [1] is 3.84 µM; in assay [2] it was 2.6 µM; in assay [3] it was 2.56 µM; in assay [4], 3.4 µM; in assay [8], 3.7 µM; in assay [5], 3.81 µM. Further, the TGI in assay [6] is 2.22 µM.
